Tests used:
obese mice = details: cited from earlier work
NO-defficient rats = details: NO-deficient rats; cited from earlier work
Sprague-Dawley Rats = experiment: Blood pressure change in Sprague-Dawley rats; format: in vivo, rat; details: 10 mpk PO, conscious Sprague-Dawley rats
Method: Male rats (250-350 g body weight, supplied by Harlan Laboratories) were anesthetized with ketamine/xylazine and a heparinized saline fluid filled catheter implanted into the right femoral artery. The catheter was exteriorized between the scapula, capped, and the animal allowed to recover for at least 7 days post surgery prior to any compound testing. Prior to testing animals were maintained on normal diet, with free access to drinking water, under a 12 hour light-dark cycle.
On the day of experimentation, under inhaled isoflurane anesthesia, the catheter was uncapped and connected to a tether (Instech Labs) and pressure transducer (Harvard Apparatus). Blood pressure and heart rate were subsequently captured and analyzed with a dedicated data capture system (PowerLab, ADInstruments). Data sampling rates were set at 1 cycle per second. Once connected, each rat was allowed to recover from anesthesia and baseline blood pressure and heart rate levels were established in these conscious, freely-moving animals. Once baseline was established either vehicle (0.5% methylcellulose or 100% PEG400) or test article was administered orally (PO, 10 mg/kg) and the effects on blood pressure and heart rate monitored for up to 24 hours.
Data are reported as hourly averages and changes in blood pressure are calculated from subtracting individual baseline on an hourly basis (Table 4)

[1] = target: T1, soluble guanylate cyclase (sGC) (Homo sapiens, UniProt Q02108+Q02153); experiment: sGC-HEK-cGMP assay with LC/MS detection; format: cell-based; details: HEK293 whole cells, LC/MS detection of cGMP, 10 μM DETA-NONOate; 50% of high control response (30 μM Compound Y); read-out: Absolute EC50 (nM)- binned (~)
T1 construct: endogenously expressing soluble guanylate cyclase (sGC); endogenous in cells; host or cells: HEK293
T1 sequence (Q02153 1-619): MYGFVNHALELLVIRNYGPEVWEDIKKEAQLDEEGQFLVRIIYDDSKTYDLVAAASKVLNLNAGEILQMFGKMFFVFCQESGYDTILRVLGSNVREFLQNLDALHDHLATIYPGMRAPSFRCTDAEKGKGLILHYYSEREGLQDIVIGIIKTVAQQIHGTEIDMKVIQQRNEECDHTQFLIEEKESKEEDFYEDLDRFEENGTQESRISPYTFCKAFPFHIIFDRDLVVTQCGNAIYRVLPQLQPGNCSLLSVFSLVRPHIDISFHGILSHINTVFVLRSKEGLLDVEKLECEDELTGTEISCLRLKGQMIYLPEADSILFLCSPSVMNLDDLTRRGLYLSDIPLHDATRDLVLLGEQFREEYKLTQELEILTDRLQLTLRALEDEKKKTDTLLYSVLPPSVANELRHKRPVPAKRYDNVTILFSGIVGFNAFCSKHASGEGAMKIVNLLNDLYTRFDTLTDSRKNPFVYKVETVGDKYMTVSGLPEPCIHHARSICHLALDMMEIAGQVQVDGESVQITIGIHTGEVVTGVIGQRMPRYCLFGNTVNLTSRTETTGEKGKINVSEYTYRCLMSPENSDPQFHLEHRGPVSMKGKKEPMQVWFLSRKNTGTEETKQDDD
T1 sequence (Q02108 1-690): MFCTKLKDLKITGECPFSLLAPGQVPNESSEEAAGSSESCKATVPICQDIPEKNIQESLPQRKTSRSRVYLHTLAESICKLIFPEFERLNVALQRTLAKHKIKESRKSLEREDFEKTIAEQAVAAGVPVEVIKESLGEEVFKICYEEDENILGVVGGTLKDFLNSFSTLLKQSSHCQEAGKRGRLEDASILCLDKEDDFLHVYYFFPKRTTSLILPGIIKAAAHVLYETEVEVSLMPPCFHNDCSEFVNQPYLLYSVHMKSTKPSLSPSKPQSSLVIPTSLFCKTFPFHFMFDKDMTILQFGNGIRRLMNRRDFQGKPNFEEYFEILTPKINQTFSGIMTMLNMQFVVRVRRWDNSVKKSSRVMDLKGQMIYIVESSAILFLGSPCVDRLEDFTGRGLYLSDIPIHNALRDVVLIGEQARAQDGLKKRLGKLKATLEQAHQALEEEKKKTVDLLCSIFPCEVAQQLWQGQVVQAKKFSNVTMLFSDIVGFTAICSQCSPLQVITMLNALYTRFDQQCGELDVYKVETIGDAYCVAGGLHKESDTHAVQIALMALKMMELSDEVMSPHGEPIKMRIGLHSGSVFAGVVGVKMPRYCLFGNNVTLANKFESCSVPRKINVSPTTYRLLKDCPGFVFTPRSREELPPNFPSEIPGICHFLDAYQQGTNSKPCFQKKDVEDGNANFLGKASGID

[2] = test system: Guinea pig tracheal smooth muscle; experiment: Electrical field stimulated guinea pig tracheal smooth muscle contraction; details: guinea pig tracheal strips, sub-maximal EFS; 95% CI 0.78-0.94; read-out: IC50, inhibition of EFS-induced tracheal smooth muscle contraction
Text: It is possible to assess the bronchodilating effects of sGC stimulators by using the system described below. This system allows us to determine potency, efficacy and duration of action of several sGC stimulators, as well as to assess potential side effects such as blood pressure, or heart rate changes.
Animals: Guinea pig, Dunkin Hartley, male, Full barrier-bred and certified free of specific micro-organisms on receipt 525-609 g on the experimental day, Harlan UK Ltd. Guinea pigs are housed in a group of 4 in solid-bottomed cages with Gold Flake bedding in a controlled environment (airflow, temperature and humidity). Food (FD1, Special Diet Services) and water are provided ad libitum.
On each experimental day, a guinea pig is killed by exposure to a rising concentration of CO2 and the trachea removed. […] Tissues are washed with Kreb's buffer and stimulated using the previously determined sub-maximal voltage for 1 hour to establish a stable baseline contraction prior to assessment of compound activity.
A cumulative dose response curve (DRC) to each test substance is then performed and changes in smooth muscle contraction measured. The effect of each test substance in each experiment is expressed as a percentage inhibition of the baseline contraction, normalized to the relevant vehicle controls. […]

sickle mice = details: oral, high doses; cited from earlier work
mdx mouse = details: cited from earlier work
[3] = test system: sickle cell disease patients with severe PHT; details: cited from earlier work
[4] = test system: adult sickle cell disease patients; details: infusions; cited from earlier work
[5] = test system: adult patients with sickle cell disease; details: acute VOE, vs placebo; cited from earlier work

Question: With `O=C(O)CCCCN(CCc1cc(F)ccc1OCc1ccc(-c2ccc(C(F)(F)F)cc2)cc1)Cc1ccc(C(=O)O)cc1` [BAY 60-2770] as the compound, how does the overactive bladder (obese mice) read?
Answer: The overactive bladder was “ameliorates overactive bladder”.

Question: For `Nc1nc(-c2nn(Cc3ccccc3F)c3ncccc23)ncc1C1CC1` [BAY-2272], which bladder dysfunction (NO-defficient rats) is on record?
Answer: The bladder dysfunction was “protective effects”.

Question: What does the source list for `Fc1cnc(-c2cc(-c3ccon3)n(Cc3ccccc3F)n2)nc1` [Compound 109]?
Answer: Rat Mean Arterial Pressure peak change from baseline (at 3 or 10 mpk@) (Sprague-Dawley Rats): B (B = −20 ≤ peak change from baseline at 3 or 10 mpk ≤ −10); EC50 [1]: 100 to 1000 nM

Question: Which IC50 [2] does the source give for `CC(C)[N+]1(C)[C@@H]2CC[C@H]1CC(OC(=O)C(CO)c1ccccc1)C2` (some centres unmarked) [Ipratropium bromide, ipratropium bromide] here?
Answer: Its IC50 is 0.86 nM.

Question: Which “Gardos channel activity, dense cell formation and hemolysis” value (sickle mice) does the source give for `N=C(N)NCCC[C@H](N)C(=O)O` [L-arginine, arginine] here?
Answer: Its value is “decrease Gardos channel activity, dense cell formation and hemolysis”.

Question: With `CCCc1nn(C)c2c(=O)[nH]c(-c3cc(S(=O)(=O)N4CCN(C)CC4)ccc3OCC)nc12` [sildenafil, Sildenafil] as the compound, how does the “muscle ischemia, injury and fatigue after a brief bout of exercise” value (mdx mouse) read?
Answer: Its value is “alleviate muscle ischemia, as well as injury and fatigue”.

Question: What about the “serious side effects (VOE, headache, visual disturbance)” value ([3]; Walk-PHaSST multicenter trial, stopped prematurely) of the same compound?
Answer: The value was “higher frequency of serious side effects”.

Question: What about the “PAP and exercise capacity” value ([3]; sickle cell disease patients with severe PHT) of the same compound?
Answer: The value was “improvements in PAP and exercise capacity”.

Question: Which forearm blood flow [4] does the source give for `O=NO` [sodium nitrite] here?
Answer: Its forearm blood flow is “enhanced forearm blood flow”.

Question: For nitric oxide [inhaled NO], which pain scores [5] is on record?
Answer: Its pain scores is “significantly reduced pain scores”.
